In US9834535B2, “Sulfamate derivative compounds for use in treating or alleviating pain” (Bio-Pharm Solutions Co., Ltd., priority 2013, dated 2017):

System: Vincristine-induced pain model
Assay: Antiallodynic activity on vincristine-induced pain model (von Frey)
Type: in vivo, Sprague-Dawley rats
Details: ip, rat, intraperitoneal, 0.5 h
Description: Male, Sprague-Dawley rats (300-320 g, Nara Bio, Korea) were habituated for 1 week before surgery and allowed free access to food and water throughout the experimentation. Room temperature and humidity were maintained at 24±2° C. and 50±10%, respectively.
Vincristine was established by the procedure of Natsuko et al. (2001) with minor modifications. Vincristine was intravenously infused continuously for 14 clays using a mini-osmotic pump as follows. Vincristine sulfate solution (Hospira, Australia) was diluted with 0.9% saline to 30 ug/kg, final close. The pumps (Alzet Model 2002, USA) were filled with the vincristine solution and primed by incubation at 37° C. for 4 h before the infusion. […]
Tactile sensitivity (Mechanical allodynia) was evaluated using von Frey monofilaments before and after treatment, and animals were used withdrawal threshold value was less than 4 g. […] The tactile sensitivity for ipsilateral hind paw was measured using the up-and-down method (Dixon, 1980) with seven von Frey monofilaments (0.4, 1, 2, 4, 6, 8, and 15 g) to 3 trials. […] The 50% paw withdrawal threshold for each paw was calculated using the following formula: [Xth] log=[vFr] log+ky where [vFr] is the force of the last von Frey used, k=0.2249 which is the average interval (in log units) between the von Frey monofilaments, and y is a value that depends upon the pattern of withdrawal responses (Dixon, 1980). […]

CC1(C)O[C@@H](COS(N)(=O)=O)[C@H](c2ccccc2Cl)O1 [Example 2, ((4S,5S)-5-(2-chlorophenyl)-2,2-dimethyl-1,3-dioxolan-4-yl)methyl sulfamate]
ED50: 1 mg/kg
